Experimental data taken from patent US20080207634A1, “Chemical Compounds” (priority 2004, published 2008).

What was measured:
T-tropic HIV = details: patients that are dual tropic or with only the T-tropic form of the virus; cited from earlier work
[1] = Compound cytotoxicity in the absence of virus (CellTiter-Glo); format: cell-based; details: human; HOS cells, no virus; read-out: Cytotox (pIC50) (converted)
Experimental: (§1) Compounds were profiled against two HIV-1 viruses, the M-tropic (CCR5 utilizing) Ba-L strain and the T-tropic (CXCR4 utilizing) IIIB strain. Both viruses were propagated in human peripheral blood lymphocytes. Compounds were tested for there ability to block infection of the HOS cell line (expressing hCXCR4/hCCR5/hCD4/pHIV-LTR-luciferase) by either HIV-1 Ba-L or HIV-1 IIIB. Compound cytotoxicity was also examined in the absence of virus addition.
(§2) HOS cells (expressing hCXCR4/hCCR5/hCD4/pHIV-LTR-luciferase) were harvested and diluted in Dulbeccos modified Eagles media supplemented with 2% FCS and non-essential amino acid to a concentration of 60,000 cells/ml. The cells were plated into 96-well plates (100 ul per well) and the plates were placed in a tissue culture incubator (37° C.; 5% CO2/95% air) for a period of 24 h.
(§3) Subsequently, 50 ul of the desired drug solution (4 times the final concentration) was added to each well and the plates were returned to the tissue culture incubator (37° C.; 5% CO2/95% air) for 1 h. Following this incubation 50 ul of diluted virus was added to each well (approximately 2 million RLU per well of virus). The plates were returned to the tissue culture incubator (37° C.; 5% CO2/95% air) and were incubated for a further 96 h.
(§4) Following this incubation the endpoint for the virally infected cultures was quantified following addition of Steady-Glo Luciferase assay system reagent (Promega, Madison, Wis.). Cell viability or non-infected cultures was measured using a CellTiter-Glo luminescent cell viability assay system (Promega, Madison, Wis.). All luminescent readouts are performed on a Topcount luminescence detector (Packard, Meridien, Conn.).

human CXCR4 = biological target: T1, human CXCR4 (Homo sapiens, UniProt P61073); experiment: Functional FLIPR assay (block of SDF-1 alpha induced [Ca2+]i change); format: cell-based; details: HEK-293 cells with human CXCR4 BacMam and Gqi5 BacMam; antagonism of SDF-1 alpha; read-out: Functional assay (pIC50) (converted)
T1 construct: expressed in transfected cells; host or cells: HEK-293 cells (stably expressing human macrophage scavenging receptor) transduced with human CXCR4 BacMam and Gqi5 BacMam
T1 sequence (P61073 whole entry): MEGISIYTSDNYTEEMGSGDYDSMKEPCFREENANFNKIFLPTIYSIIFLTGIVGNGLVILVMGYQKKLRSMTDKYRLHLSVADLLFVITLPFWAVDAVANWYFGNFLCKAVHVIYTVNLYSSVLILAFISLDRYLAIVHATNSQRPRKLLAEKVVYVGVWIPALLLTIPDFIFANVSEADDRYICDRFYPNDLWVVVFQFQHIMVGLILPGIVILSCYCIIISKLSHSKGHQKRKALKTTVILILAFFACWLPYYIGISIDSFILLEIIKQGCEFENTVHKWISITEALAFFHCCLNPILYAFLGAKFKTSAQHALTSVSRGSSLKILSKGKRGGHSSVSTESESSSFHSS
Experimental: Human embryonic kidney (HEK-293) cells were maintained and harvested as described above. Cells were plated in 96-well, black clear bottom, poly-lysine coated plates at a concentration of 40,000 cells per well in a final volume of 100 ul containing human CXCR4BacMam (MOI=25) and Gqi5 BacMam (MOI=12.5). The cells were incubated at 37° C., 5% CO2, 95% humidity for 24 h to allow for protein expression.
After the required incubation time the cells were washed once with 50 ul of fresh serum-free DMEM/F12 media containing probenicid. 50 ul of dye solution was then added to the cells (Calcium Plus Assay Kit Dye; Molecular Devices) was dissolved in 200 ml of the above probenicid/BSA containing media and incubated for 1 h. Cell plates were transferred to a Fluorometric Imaging Plate Reader (FLIPR). Upon addition the effect of the compounds on the change in [Ca^2+]i was examined to determine if the compounds were agonists or antagonists (ability to block SDF-1 alpha activity) at the CXCR4 receptor. IC50 values are determined and pKb values are calculated using the Leff and Dougall equation: KB═IC50/((2+([agonist]/EC50̂b) ̂1/b−1) Where IC50 is that defined by the antagonist concentration-response curve [agonist] is the EC80 concentration of agonist used EC50 is that defined by the agonist concentration-response curve b is the slope of the agonist concentration-response curve.

[2] = Cell/cell fusion assay (luciferase); format: cell-based; details: Homo sapiens, HEK293; 24 h incubation, luciferase readout; read-out: Fusion assay (pIC50) (converted)
Description: The complete coding sequences of HIV-1 tat (GenBank Accession No. X07861) and rev (GenBank Accession No. M34378) were cloned into pcDNA3.1 expression vectors containing G418 and hygromycin resistance genes, respectively. The complete coding sequence of the HIV-1 (HXB2 strain) gp160 envelope gene (nucleotide bases 6225-8795 of GenBank Accession No. K03455) was cloned into plasmid pCRII-TOPO. The three HIV genes were additionally inserted into the baculovirus shuttle vector, pFastBacMam1, under the transcriptional control of the CMV promoter. A construction of the pHIV—I LTR containing mutated NFkB sequences linked to the luciferase reporter gene was prepared by digesting pcDNA3.1, containing the G418 resistance gene, with Nru I and Bam HI to remove the CMV promoter. LTR-luc was then cloned into the Nru I/Bam HI sites of the plasmid vector. Plasmid preparations were performed after the plasmids were amplified in Escherichia coli strain DH5-alpha. The fidelity of the inserted sequences was confirmed by double-strand nucleotide sequencing using an ABI Prism Model 377 automated sequencer.
Recombinant BacMam baculoviruses were constructed from pFastBacMam shuttle plasmids by using the bacterial cell-based Bac-to-Bac system. Viruses were propagated in Sf9 (Spodoptera frugiperda) cells cultured in Hink's TNM-FH Insect media supplemented with 10% (v/v) fetal bovine serum and 0.1% (v/v) pluronic F-68 according to established protocols.
Human osteosarcoma (HOS) cells that naturally express human CXCR4 were transfected with human CCR5, human CD4 and the pHIV-LTR-luciferase plasmid using FuGENE 6 transfection reagent. Single cells were isolated and grown under selection condition in order to generate a stable HOS (hCXCR4/hCCR5/hCD4/pHIV-LTR-luciferase) clonal cell line. The cells were maintained in Dulbeccos modified Eagles media supplemented with 10% fetal calf serum (FCS), G418 (400 ug/ml), puromycin (1 ug/ml), mycophenolic acid (40 ug/ml), xanthine (250 ug/ml) and hypoxanthine (13.5 ug/ml) to maintain a selection pressure for cells expressing the LTR-luciferase, hCCR5 and hCD4, respectively. Human embryonic kidney (HEK-293) cells stably transfected to express the human macrophage scavenging receptor (Class A, type 1; GenBank Accession No. D90187), were maintained in DMEM/F-12 media (1:1) supplemented with 10% FCS and 1.5 ug/ml puromycin. The expression of this receptor by the HEK-293 cells enhances their ability to stick to tissue culture treated plasticware.
HEK-293 cells were harvested using enzyme-free cell dissociation buffer. The cells were resuspended in DMEM/F-12 media supplemented with 10% FCS and 1.5 ug/ml and counted. […]
Following the 24 h incubation, total cellular luciferase activity was measured using the LucLite Plus assay kit (Packard, Meridien, Conn.). […]

[3] = tested on: HIV-1 IIIB (T-tropic, CXCR4 utilizing); experiment: HOS HIV-1 infectivity assay, IIIB strain; format: cell-based; details: Human immunodeficiency virus 1; HOS cells infected with HIV-1 IIIB, 96 h, luciferase; read-out: HOS (3B)
Experimental: as §1, §2, §3, §4

HIV = experiment: HOS HIV anti-infectivity assay (strain not stated); format: cell-based; details: Human immunodeficiency virus 1, activity level class, read-out: Antiviral acitivity
Experimental: as §1, §2, §3, §4

Row | Structure (SMILES) | IC50 (HIV) | T-tropic HIV viral load (T-tropic HIV) | IC50 at 97 h [1] | IC50 (human CXCR4) | IC50 [2] | IC50 [3]
1 | c1cc(CN2CCCNCCNCCCNCC2)ccc1CN1CCCNCCNCCCNCC1 [AMD-3100] | – | significantly reduce T-tropic HIV viral load | – | – | – | –
2 | CN(Cc1cn2c(F)cccc2n1)C1CCOc2cccnc21 (stereo not shown) [Example 2, N-[(5-Fluoroimidazo[1,2-a]pyridin-2-yl)methyl]-N-methyl-3,4-dihydro-2H-pyrano[3,2-b]pyridin-4-amine] | – | – | > 10000 nM | > 10000 nM | > 10000 nM | > 20000 nM
3 | CN1CCN(c2cccc3nc(CN(C)C4CCOc5cccnc54)cn23)CC1 (stereo not shown) [Example 3, N-Methyl-N-{[5-(4-methyl-1-piperazinyl)imidazo[1,2-a]pyridin-2-yl]methyl}-3,4-dihydro-2H-pyrano[3,2-b]pyridin-4-amine] | < 100 nM | – | > 10000 nM | 6.92 nM | 2.63 nM | 17 nM
4 | CN(Cc1cn2c(N3CCNCC3)cccc2n1)C1CCOc2cccnc21 (stereo not shown) [Example 4, N-Methyl-N-{[5-(1-piperazinyl)imidazo[1,2-a]pyridin-2-yl]methyl}-3,4-dihydro-2H-pyrano[3,2-b]pyridin-4-amine] | < 100 nM | – | > 10000 nM | 25.1 nM | 26.9 nM | 34 nM
5 | CN(C)CCN(C)c1cccc2nc(CN(C)C3CCOc4cccnc43)cn12 (stereo not shown) [Example 5] | < 100 nM | – | > 10000 nM | 69.2 nM | 61.7 nM | 61 nM
6 | CN(Cc1cn2c(N3CCNC(=O)C3)cccc2n1)[C@H]1CCOc2cccnc21 [Example 7, 4-(2-{[(4S)-3,4-Dihydro-2H-pyrano[3,2-b]pyridin-4-yl(methyl)amino]methyl}imidazo[1,2-a]pyridin-5-yl)-2-piperazinone] | 500 to 10000 nM | – | – | – | – | –
7 | CN(C)C1CCN(c2cccc3nc(CN(C)[C@H]4CCOc5cccnc54)cn23)C1 (stereo partly drawn) [Example 9, (4S)—N-({5-[3-(Dimethylamino)-1-pyrrolidinyl]imidazo[1,2-a]pyridin-2-yl}methyl)-N-methyl-3,4-dihydro-2H-pyrano[3,2-b]pyridin-4-amine] | < 100 nM | – | – | – | – | –

Now from value to molecule, other results behind:

Row | IC50 (HIV) | Structure (SMILES) | T-tropic HIV viral load (T-tropic HIV) | IC50 at 97 h [1] | IC50 (human CXCR4) | IC50 [2] | IC50 [3]
8 | < 100 nM | CC(C)N1CCN(c2cccc3nc(CN(C)[C@H]4CCOc5cccnc54)cn23)CC1 [Example 8, (4S)—N-Methyl-N-({5-[4-(1-methylethyl)-1-piperazinyl]imidazo[1,2-a]pyridin-2-yl}methyl)-3,4-dihydro-2H-pyrano[3,2-b]pyridin-4-amine] | – | – | – | – | –
9 | < 100 nM | CN(Cc1cn2c(N3CCC(N)CC3)cccc2n1)[C@H]1CCOc2cccnc21 [Example 10, (4S)—N-{[5-(4-Amino-1-piperidinyl)imidazo[1,2-a]pyridin-2-yl]methyl}-N-methyl-3,4-dihydro-2H-pyrano[3,2-b]pyridin-4-amine] | – | – | – | – | –
10 | < 100 nM | CN(Cc1cn2c(N3CCC(N)C3)cccc2n1)[C@H]1CCOc2cccnc21 (stereo partly drawn) [Example 11, (4S)—N-{[5-(3-Amino-1-pyrrolidinyl)imidazo[1,2-a]pyridin-2-yl]methyl}-N-methyl-3,4-dihydro-2H-pyrano[3,2-b]pyridin-4-amine] | – | – | – | – | –
11 | < 100 nM | CN1CCC(N(C)c2cccc3nc(CN(C)C4CCOc5cccnc54)cn23)C1 (stereo not shown) [Example 12, N-Methyl-N-({5-[methyl(1-methyl-3-pyrrolidinyl)amino]imidazo[1,2-a]pyridin-2-yl}methyl)-3,4-dihydro-2H-pyrano[3,2-b]pyridin-4-amine] | – | – | – | – | –
12 | < 100 nM | CN1CCN(c2cccc3nc(CN(C)[C@H]4CCOc5cccnc54)cn23)CC1 [Example 13, (4S)—N-Methyl-N-{[5-(4-methyl-1-piperazinyl)imidazo[1,2-a]pyridin-2-yl]methyl}-3,4-dihydro-2H-pyrano[3,2-b]pyridin-4-amine] | – | – | – | – | –
13 | < 100 nM | CN1CCN(c2cccc3nc(CN(C)C4CCOc5cccnc54)c(CO)n23)CC1 (stereo not shown) [Example 14, [2-{[3,4-dihydro-2H-pyrano[3,2-b]pyridin-4-yl(methyl)amino]methyl}-5-(4-methyl-1-piperazinyl)imidazo[1,2-a]pyridin-3-yl]methanol] | – | – | – | – | –
